Assay results as given in patent US8552016B2, “Anti-cancer cyclopenta(g)quinazoline compounds” (BTG International Limited, priority 2001, dated 2013).
Where two headings read alike, the source gives them in different places.

Assays:
α-FR of L1210-FBP cells = molecular target: T1, α-FR of L1210-FBP cells (Mus musculus, UniProt P35846); assay: Binding to the α-FR relative to folic acid, L1210-FBP cells; conditions: >1 = binding greater than folic acid
T1 construct: endogenous in cells; host or cells: mouse L1210-FBP leukaemia cells

A431-FBP cells = assay: Inhibition of growth of A431-FBP cells (A431 transfected with the α-FR); assay type: cell-based, human; conditions: for A431-FBP: fold increased IC50 in presence of folic acid: 1 μM FA; for activity in A431-FBP cells (in words): α-FR mediated uptake
Text: (§1) CB300945, the (RS)-C2-CH2OH analogue of the known cyclopenta[g]-quinazoline, CB300638 was synthesised as in Example 1. In addition, the C2-NH2 was made as a comparative example. […] The human A431-FBP cell line was transfected with the α-FR and sensitivity compared with the A431 cell line. Human nasopharengeal KB cells constitutively overexpress this receptor (see Bagnoli et al. Oncogene, 19, 4754-4763, 2000).

KB cells = assay: Inhibition of growth of KB cells (constitutively overexpress α-FR); assay type: cell-based, human; conditions: for KB: fold increased IC50 in presence of folic acid: 1 μM FA
Text: as §1

A431 cells = assay: Inhibition of growth of A431 (neo-transfected, not expressing α-FR) cells; assay type: cell-based, human; conditions: for A431: fold increased IC50 in presence of folic acid: 1 μM FA
Text: as §1

[1] = Homo sapiens, A-431, 1 nM LV, read-out: Inhibition of cell growth, IC50, A431-FBP
[2] = Homo sapiens, A-431, read-out: Inhibition of cell growth, IC50, A431-FBP + 1 μM FA, 1 nM LV, + 1 μM folic acid
[3] = Homo sapiens, A-431, read-out: Inhibition of cell growth, IC50, A431-FBP + 1 μM FA, 20 nM LV, + 1 μM folic acid
[4] = Homo sapiens, KB, read-out: Inhibition of cell growth, IC50, KB + 1 μM FA, 1 nM LV, + 1 μM folic acid
[5] = Homo sapiens, KB, read-out: Inhibition of cell growth, IC50, KB + 1 μM FA, 20 nM LV, + 1 μM folic acid
[6] = Homo sapiens, A-431, 1 nM LV, read-out: Inhibition of cell growth, IC50, A431
[7] = Homo sapiens, A-431, read-out: Inhibition of cell growth, IC50, A431 + 1 μM FA, 1 nM LV, + 1 μM folic acid
[8] = Homo sapiens, A-431, read-out: Inhibition of cell growth, IC50, A431 + 1 μM FA, 20 nM LV, + 1 μM folic acid
[9] = Homo sapiens, KB, 1 nM LV, read-out: Inhibition of cell growth, IC50, KB
[10] = 20 nM LV, read-out: Inhibition of cell growth, IC50, A431

T1 sequence (P35846 25-232): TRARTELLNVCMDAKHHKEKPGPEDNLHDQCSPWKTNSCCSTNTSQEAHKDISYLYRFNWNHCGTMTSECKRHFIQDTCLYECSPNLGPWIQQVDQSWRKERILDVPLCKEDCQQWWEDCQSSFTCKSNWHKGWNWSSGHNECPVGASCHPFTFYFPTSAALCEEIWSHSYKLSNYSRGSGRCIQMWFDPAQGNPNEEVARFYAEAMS

With `C#CCN(c1ccc(C(=O)N[C@@H](CCC(=O)N[C@H](CCC(=O)O)C(=O)O)C(=O)O)cc1)C1CCc2cc3nc(CO)[nH]c(=O)c3cc21` (mixture of isomers) [CB300945 (RS), N—{N-{4-[N-((6RS)-2-Hydroxymethyl-4-oxo-3,4,7,8-tetrahydro-6H-cyclopenta[g]quinazolin-6-yl)-N-(prop-2-ynyl)amino]benzoyl}-L-γ-glutamyl}-D-glutamic acid] the “relative binding affinity (inverse relative affinity) for the α-FR” value (“relative binding affinity” for short) (α-FR of L1210-FBP cells) was 0.71, the “A431-FBP: fold increased sensitivity compared with A431” value (“A431-FBP: fold increased sensitivity” below) (A431-FBP cells; 1 nM LV) was “(3800) fold” and the “A431-FBP: fold increased IC50 in presence of folic acid” value (from here on “A431-FBP: fold increased IC50”) (A431-FBP cells; 1 nM LV) was “(3100) fold”. The “A431-FBP: fold increased sensitivity” value (A431-FBP cells; 20 nM LV) was “(4700) fold”, the “A431-FBP: fold increased IC50” value (A431-FBP cells; 20 nM LV) was “(3100) fold” and the IC50 (A431-FBP cells; [1]) was 0.0019 ± 0.0006 µM. For the same molecule, the IC50 (A431-FBP cells; [2]) was 5.7 ± 1.3 µM, the IC50 (A431-FBP cells; [3]) was 6.5 ± 0.86 µM and the “activity in A431-FBP cells (in words)” value (A431-FBP cells) was “highly potent”. For the same molecule, the “KB: fold increased IC50 in presence of folic acid” value (“KB: fold increased IC50” below) (KB cells; 1 nM LV) was “(2200) fold”, the “KB: fold increased IC50” value (KB cells; 20 nM LV) was “(2100) fold” and the IC50 (KB cells; [4]) was 7.6 ± 1.3 µM. The IC50 (KB cells; [5]) was 7.3 ± 2 µM, the “A431: fold increased IC50 in presence of folic acid” value (“A431: fold increased IC50” below) (A431 cells; 20 nM LV) was “(1) fold” and the IC50 (A431 cells; [6]) was 7.2 ± 3.6 µM. For the same molecule, the IC50 (A431 cells; [7]) was 7.3 ± 3.3 µM and the IC50 (A431 cells; [8]) was 9.3 ± 3.5 µM.

With `C#CCN(c1ccc(C(=O)N[C@@H](CCC(=O)N(C)[C@@H](CCC(=O)O)C(=O)O)C(=O)O)cc1)C1CCc2cc3nc(CO)[nH]c(=O)c3cc21` (mixture of isomers) [CB300960 (R, S), N—{N-{4-[N-((6RS)-2-hydroxymethyl-4-oxo-3,4,7,8-tetrahydro-6H-cyclopenta[g]quinazolin-6-yl)-N-(prop-2-ynyl)amino]benzoyl}-L-γ-glutamyl}-N-methyl-L-glutamic acid] the “A431-FBP: fold increased IC50” value (A431-FBP cells; 20 nM LV) was “(180) fold”, the IC50 (A431-FBP cells; [3]) was 5.1 µM and the “A431: fold increased IC50” value (A431 cells; 20 nM LV) was “(1) fold”.

For `C#CCN(c1ccc(C(=O)N[C@@H](CCC(=O)N[C@H](CCC(=O)O)C(=O)O)C(=O)O)cc1)C1CCc2cc3nc(C)[nH]c(=O)c3cc21` (mixture of isomers) [CB300638 (RS)], the “relative binding affinity” value (α-FR of L1210-FBP cells) was 0.57, the “A431-FBP: fold increased sensitivity” value (A431-FBP cells; 1 nM LV) was “(170) fold” and the “A431-FBP: fold increased IC50” value (A431-FBP cells; 1 nM LV) was “(85) fold”. For the same molecule, the “A431-FBP: fold increased sensitivity” value (A431-FBP cells; 20 nM LV) was “(220) fold”, the “A431-FBP: fold increased IC50” value (A431-FBP cells; 20 nM LV) was “(130) fold” and the IC50 (A431-FBP cells; [1]) was 0.0072 ± 0.001 µM. The IC50 (A431-FBP cells; [2]) was 0.61 ± 0.012 µM, the IC50 (A431-FBP cells; [3]) was 0.87 ± 0.29 µM and the “activity in A431-FBP cells (in words)” value (A431-FBP cells) was “highly sensitive”. The “KB: fold increased IC50” value (KB cells; 1 nM LV) was “(76) fold”, the “KB: fold increased IC50” value (KB cells; 20 nM LV) was “(140) fold” and the IC50 (KB cells; [9]) was 0.0079 ± 0.001 µM. For the same molecule, the IC50 (KB cells; [4]) was 0.61 ± 0.012 µM, the IC50 (KB cells; [5]) was 0.76 ± 0.17 µM and the “A431: fold increased IC50” value (A431 cells; 1 nM LV) was “(1) fold”. The “A431: fold increased IC50” value (A431 cells; 20 nM LV) was “(1) fold”, the IC50 (A431 cells; [6]) was 1.2 ± 0.21 µM and the IC50 (A431 cells; [7]) was 0.98 ± 0.23 µM.

In the case of `C#CCN(c1ccc(C(=O)N[C@@H](CCC(=O)N[C@H](CCC(=O)O)C(=O)O)C(=O)O)cc1)C1CCc2cc3nc(N)[nH]c(=O)c3cc21` (mixture of isomers) [CB300944 (RS)], the “relative binding affinity” value (α-FR of L1210-FBP cells) is reported as 0.57, the “A431-FBP: fold increased sensitivity” value (A431-FBP cells; 1 nM LV) is reported as “(3) fold” and the “A431-FBP: fold increased IC50” value (A431-FBP cells; 1 nM LV) is reported as “(1) fold”. For the same molecule, the “A431-FBP: fold increased sensitivity” value (A431-FBP cells; 20 nM LV) was “(3) fold”, the “A431-FBP: fold increased IC50” value (A431-FBP cells; 20 nM LV) was “(1) fold” and the IC50 (A431-FBP cells; [1]) was 9.1 ± 0.83 µM. The IC50 (A431-FBP cells; Homo sapiens, A-431, 20 nM LV, read-out: Inhibition of cell growth, IC50, A431-FBP) was 8.3 ± 0.64 µM, the IC50 (A431-FBP cells; [2]) was 12 ± 2.1 µM and the IC50 (A431-FBP cells; [3]) was 7.1 ± 1 µM. For the same molecule, the “activity in A431-FBP cells (in words)” value (A431-FBP cells) was “very little activity”, the “KB: fold increased IC50” value (KB cells; 1 nM LV) was “(1) fold” and the “KB: fold increased IC50” value (KB cells; 20 nM LV) was “(1) fold”. For the same molecule, the IC50 (KB cells; [9]) was 19 µM, the IC50 (KB cells; Homo sapiens, KB, 20 nM LV, read-out: Inhibition of cell growth, IC50, KB) was 19 ± 0.58 µM and the IC50 (KB cells; [4]) was 19 ± 1.5 µM. The IC50 (KB cells; [5]) was 19 ± 1.2 µM, the “A431: fold increased IC50” value (A431 cells; 1 nM LV) was “(1) fold” and the “A431: fold increased IC50” value (A431 cells; 20 nM LV) was “(1) fold”. It also gave an IC50 (A431 cells; [10]) of 27 µM, an IC50 (A431 cells; [6]) of 24 ± 3.6 µM and an IC50 (A431 cells; Homo sapiens, A-431, 20 nM LV, read-out: Inhibition of cell growth, IC50, A431) of 23 µM. The IC50 (A431 cells; [7]) was 24 ± 2.9 µM and the IC50 (A431 cells; [8]) was 22 µM.

With `C#CCN(Cc1cc2c(O)nc(C)nc2cc1C)c1ccc(C(=O)N[C@@H](CCc2nnn[nH]2)C(=O)O)c(F)c1` [ZD9331] the “A431-FBP: fold increased sensitivity” value (A431-FBP cells; 1 nM LV) was “(7) fold”, the “A431-FBP: fold increased IC50” value (A431-FBP cells; 1 nM LV) was “(3) fold” and the IC50 (A431-FBP cells; 1 nM LV, read-out: Inhibition of cell growth, IC50, A431-FBP) was 0.0088 ± 0.0052 µM. The “A431-FBP: fold increased sensitivity” value (A431-FBP cells; 20 nM LV) was “(4) fold”, the “A431-FBP: fold increased IC50” value (A431-FBP cells; 20 nM LV) was “(2) fold” and the IC50 (A431-FBP cells; 20 nM LV, read-out: Inhibition of cell growth, IC50, A431-FBP) was 0.018 ± 0.0097 µM. For the same molecule, the IC50 (A431-FBP cells; read-out: Inhibition of cell growth, IC50, A431-FBP + 1 μM FA, 1 nM LV, + 1 μM folic acid) was 0.027 ± 0.0076 µM, the IC50 (A431-FBP cells; read-out: Inhibition of cell growth, IC50, A431-FBP + 1 μM FA, 20 nM LV, + 1 μM folic acid) was 0.034 ± 0.0087 µM and the “KB: fold increased IC50” value (KB cells; 1 nM LV) was “(3) fold”. The IC50 (KB cells; 1 nM LV, read-out: Inhibition of cell growth, IC50, KB) was 0.0021 ± 0.0013 µM, the “KB: fold increased IC50” value (KB cells; 20 nM LV) was “(3) fold” and the IC50 (KB cells; 20 nM LV, read-out: Inhibition of cell growth, IC50, KB) was 0.0036 ± 0.0021 µM. The IC50 (KB cells; read-out: Inhibition of cell growth, IC50, KB + 1 μM FA, 1 nM LV, + 1 μM folic acid) was 0.00641 ± 0.0035 µM, the IC50 (KB cells; read-out: Inhibition of cell growth, IC50, KB + 1 μM FA, 20 nM LV, + 1 μM folic acid) was 0.012 ± 0.005 µM and the “A431: fold increased IC50” value (A431 cells; 1 nM LV) was “(1) fold”. The IC50 (A431 cells; 1 nM LV, read-out: Inhibition of cell growth, IC50, A431) was 0.061 ± 0.014 µM, the “A431: fold increased IC50” value (A431 cells; 20 nM LV) was “(1) fold” and the IC50 (A431 cells; [10]) was 0.082 ± 0.042 µM. The IC50 (A431 cells; read-out: Inhibition of cell growth, IC50, A431 + 1 μM FA, 1 nM LV, + 1 μM folic acid) was 0.056 ± 0.025 µM and the IC50 (A431 cells; read-out: Inhibition of cell growth, IC50, A431 + 1 μM FA, 20 nM LV, + 1 μM folic acid) was 0.067 ± 0.029 µM.
